Measurements from patent US7728012B2, “Carboxamide compounds and their use as calpain inhibitors” (Abbott GmbH & Co. KG, priority 2006, dated 2010).

Assays:
Type in all cases: biochemical
[1] = biological target: T1, calpain-I isolated from human erythrocytes (Homo sapiens, UniProt P07384); test: Calpain I kinetic fluorescence enzyme inhibition assay; details: apparent Ki from IC50 by Cheng-Prussoff; average of 2 to 4 dose-effect plots
T1 construct: calpain-I—isolated from human erythrocytes; purchased Calbiochem 208713; host or cells: human erythrocytes (tissue isolate)
T1 sequence (P07384 1-714): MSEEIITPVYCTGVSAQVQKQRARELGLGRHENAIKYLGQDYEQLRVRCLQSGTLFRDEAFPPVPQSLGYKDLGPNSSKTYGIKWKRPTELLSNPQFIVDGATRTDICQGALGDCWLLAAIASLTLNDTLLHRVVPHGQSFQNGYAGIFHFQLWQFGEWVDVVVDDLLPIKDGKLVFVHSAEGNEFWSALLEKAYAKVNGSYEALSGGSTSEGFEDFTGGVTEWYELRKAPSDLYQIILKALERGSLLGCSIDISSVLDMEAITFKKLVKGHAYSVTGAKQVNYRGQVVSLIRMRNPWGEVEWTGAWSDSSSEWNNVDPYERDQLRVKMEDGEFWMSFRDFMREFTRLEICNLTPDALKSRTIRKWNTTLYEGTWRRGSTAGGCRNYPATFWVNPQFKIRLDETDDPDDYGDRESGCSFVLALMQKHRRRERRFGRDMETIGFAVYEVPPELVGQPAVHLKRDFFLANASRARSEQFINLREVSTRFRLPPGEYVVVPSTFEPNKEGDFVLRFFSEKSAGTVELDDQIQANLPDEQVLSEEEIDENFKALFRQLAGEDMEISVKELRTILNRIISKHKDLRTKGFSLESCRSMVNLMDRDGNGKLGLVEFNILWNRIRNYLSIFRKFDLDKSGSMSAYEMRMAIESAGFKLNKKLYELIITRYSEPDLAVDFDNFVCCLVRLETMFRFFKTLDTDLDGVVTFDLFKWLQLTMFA
T1 sequence (P04632 1-268 partner): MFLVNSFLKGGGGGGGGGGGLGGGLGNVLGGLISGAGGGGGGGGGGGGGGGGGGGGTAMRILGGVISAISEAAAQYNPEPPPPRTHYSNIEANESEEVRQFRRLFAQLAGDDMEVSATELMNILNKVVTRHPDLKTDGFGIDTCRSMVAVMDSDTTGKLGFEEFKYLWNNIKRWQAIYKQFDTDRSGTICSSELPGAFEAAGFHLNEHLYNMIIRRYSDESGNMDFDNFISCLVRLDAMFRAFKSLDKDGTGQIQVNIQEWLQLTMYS

[2] = biological target: T2, cathepsin B isolated from human liver (Homo sapiens, UniProt P07858); test: Cathepsin B kinetic fluorescence enzyme inhibition assay; details: selectivity ratio versus calpain I
T2 construct: cathepsin B—isolated from human liver; purchased Calbiochem 219362; host or cells: human liver (tissue isolate)
How it was run: (§1)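 Cathepsin B (0.25 nM, human liver) with 100 μM Z-Phe-Arg-AMC; L (1 nM, human liver) with 2 μM Z-Phe-Arg-AMC; S (0.5 nM, recombinant) with 20 μM Z-Val-Val-Arg-AMC. pH 6.0 MES buffer, 2.5 mM L-cysteine, room temperature. Kinetic fluorescence (ex 390/em 460 nm); apparent Ki from IC50 by Cheng-Prusoff.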

[3] = biological target: T3, cathepsin K activated from recombinant human procathepsin K (Homo sapiens, UniProt P43235); test: Cathepsin K kinetic fluorescence enzyme inhibition assay; details: selectivity ratio versus calpain I
T3 construct: purchased Calbiochem 342001; host or cells: E. coli
T3 sequence (P43235 115-329): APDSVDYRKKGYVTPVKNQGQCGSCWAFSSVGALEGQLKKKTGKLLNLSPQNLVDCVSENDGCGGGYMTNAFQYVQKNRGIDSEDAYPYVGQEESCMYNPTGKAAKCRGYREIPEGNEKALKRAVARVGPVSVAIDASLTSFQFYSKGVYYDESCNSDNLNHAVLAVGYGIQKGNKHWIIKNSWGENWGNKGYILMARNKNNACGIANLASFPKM
Description: The following solutions and buffers were employed: • HBS (for 40 ml): 800 μl M HEPES; 2.16 ml 100 mM KCl; 4.8 ml 1M NaCl; 3.59 ml 5% glucose; 60 μl μM MgSO4; 400 μl 100 mM Na pyruvate, 28.19 ml water; pH 7.2-7.5. • lysis buffer (for 20 ml): 400 μl M Tris pH 8.2; 2.74 ml 1M NaCl; 520 μl 0.5M EDTA; 2 ml 10% triton X-100; 0.8 ml (=1:25) CompletePlus (1 tablet/2 ml H2O); 200 μl 100 mM Pefabloc; 13.34 ml water, pH 8.2. • TBST (10×) (for 1 l): 100 mM Tris (12.1 g); 1.5M NaCl (87 g); 1% Tween 20 (10 g), adjusted to pH 8. I Enzyme Inhibition In Vitro: • Testing for blockade of the corresponding enzymic activities was carried out by means of kinetic fluorescence assays (excitation 390 nm, emission 460 nm). • Apparent Ki values were calculated from the experimentally determined IC50 values by the Cheng-Prussoff relation assuming a reversible competitive enzyme inhibition. The Km values of the substrates used under the assay conditions indicated above were: 90 μM (Z-Phe-Arg-AMC, cathepsin B), 10 μM (Z-Gly-Pro-Arg-AMC, cathepsin K), 2 μM (Z-Phe-Arg-AMC, cathepsin L), and 30 μM (Z-Val-Val-Arg-AMC, cathepsin S). • The indicated Ki values are averages of the inhibition constants calculated on the basis of 2 to 4 independent dose-effect plots.
The following assays were used: • 1. Calpain I: • 20 nM calpain-I—isolated from human erythrocytes (Calbiochem #208713), 100 μM Suc-Leu-Tyr-AMC (Bachem #1-1355) as substrate in buffer with 62 mM imidazole, 0.3 mM CaCl2, 0.10% CHAPS, 0.05% BSA, 1 mM DTT at pH 7.3 and room temperature. • 2. Cathepsin B: • 0.25 nM cathepsin B—isolated from human liver (Calbiochem #219362), 100 μM Z-Phe-Arg-AMC (Bachem #I-1160) as substrate 50 mM MES, 2 mM EDTA, 0.05% Brij 35, 2.5 mM L-cysteine, pH 6.0, room temperature. • 3. Cathepsin K: • 3 nM cathepsin K—activated from recombinant human procathepsin K from E. coli (Calbiochem #342001), 10 μM Z-Gly-Pro-Arg-AMC (Biomol #P-142) as substrate in 50 mM MES, 2 mM EDTA, 0.05% Brij 35, 2.5 mM L-cysteine, pH 6.0, room temperature. • 4. Cathepsin L: • 1 nM cathepsin L—isolated from human liver (Calbiochem #219402), 2 μM Z-Phe-Arg-AMC (Bachem #1-1160) as substrate in 50 mM MES, 2 mM EDTA, 0.05% Brij 35, 2.5 mM L-cysteine, pH 6.0, room temperature. • 5. Cathepsin S: • 0.5 nM recombinant human cathepsin S from E. coli (Calbiochem #219343), 20 μM Z-Val-Val-Arg-AMC (Bachem #1-1540) as substrate in 50 mM MES, 2 mM EDTA, 0.05% Brij 35, 2.5 mM L-cysteine, pH 6.0, room temperature. • The results of the in vitro determination are indicated in Table 1. The following abbreviations are used in Table 1: • The “Calpain activity” column, ++ stands for a calpain Ki (Ki(calpain)) of ≦40 nM and + means: 40 nM<Ki(Calpain)≦100 nM. • The “Sel. cat. B” column indicates the Ki(cathepsin B)/Ki(calpain) ratio. In this connection, ++ means a Ki(cathepsin B)/Ki(calpain) ratio of ≧30 and + means 10≦Ki(cathepsin B)/Ki(calpain)<30. • The “Sel. cat. K” column indicates the Ki(cathepsin K)/Ki(calpain) ratio. In this connection, ++ means a Ki(cathepsin K)/Ki(calpain) ratio of ≧30 and + means 10≦Ki(cathepsin K)/Ki(calpain)<30. • The “Sel. cat. L” column indicates the Ki(cathepsin L)/Ki(calpain) ratio. In this connection, ++ means a Ki(cathepsin L)/Ki(calpain) ratio of ≧50 and + means 30≦Ki(cathepsin L)/Ki(calpain)<50. • The “Sel. cat. S” column indicates the Ki(cathepsin S)/Ki(calpain) ratio. In this connection, ++ means a Ki(cathepsin S)/Ki(calpain) ratio of ≧100 and + means 50≦Ki(cathepsin S)/Ki(calpain)<100.

[4] = biological target: T4, cathepsin L isolated from human liver (Homo sapiens, UniProt P07711); test: Cathepsin L kinetic fluorescence enzyme inhibition assay; details: selectivity ratio versus calpain I
T4 construct: cathepsin L—isolated from human liver; purchased Calbiochem 219402; host or cells: human liver (tissue isolate)
How it was run: as §1

[5] = biological target: T5, recombinant human cathepsin S (Homo sapiens, UniProt P25774); test: Cathepsin S kinetic fluorescence enzyme inhibition assay; details: selectivity ratio versus calpain I
T5 construct: purchased Calbiochem 219343; host or cells: E. coli
How it was run: as §1

T5 sequence (P25774 115-331): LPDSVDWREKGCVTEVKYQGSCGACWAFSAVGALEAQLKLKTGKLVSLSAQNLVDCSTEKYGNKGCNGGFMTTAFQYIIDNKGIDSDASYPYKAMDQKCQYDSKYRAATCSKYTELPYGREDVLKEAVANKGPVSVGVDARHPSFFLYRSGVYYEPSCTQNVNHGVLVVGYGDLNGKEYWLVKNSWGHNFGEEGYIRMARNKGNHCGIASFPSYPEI
T4 sequence (P07711 114-333): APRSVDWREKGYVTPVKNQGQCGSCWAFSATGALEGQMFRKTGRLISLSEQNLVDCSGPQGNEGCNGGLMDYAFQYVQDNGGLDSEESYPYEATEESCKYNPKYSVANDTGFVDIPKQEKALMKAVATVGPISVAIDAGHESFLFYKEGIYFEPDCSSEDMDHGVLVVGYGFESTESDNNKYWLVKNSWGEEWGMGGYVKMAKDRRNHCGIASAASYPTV

Row | Compound | Ki [1] [nM] | Sel cat. B (Ki(cathepsin B)/Ki(calpain) ratio) [2] | Sel cat. K (Ki(cathepsin K)/Ki(calpain) ratio) [3] | Sel cat. L (Ki(cathepsin L)/Ki(calpain) ratio) [4] | Sel cat. S (Ki(cathepsin S)/Ki(calpain) ratio) [5]
1 | NC(=O)C(=O)C(Cc1ccccc1)NC(=O)c1cccnc1-n1ccc(-c2ccccc2)n1 (centres unmarked) [Example 5, N-(3-Amino-1-benzyl-2,3-dioxopropyl)-2-(3-phenyl-1H-pyrazol-1-yl)nicotinamide] | ≤ 40 | + (10≦Ki(cathepsin B)/Ki(calpain)<30) | + (10≦Ki(cathepsin K)/Ki(calpain)<30) | ++ (Ki(cathepsin L)/Ki(calpain) ratio of ≧50) | ++ (Ki(cathepsin S)/Ki(calpain) ratio of ≧100)
2 | NC(=O)C(=O)C(Cc1ccccc1)NC(=O)c1cc(Cl)cnc1-n1ccc(-c2ccccc2)n1 (centres unmarked) [Example 27, N-(3-Amino-1-benzyl-2,3-dioxopropyl)-5-chloro-2-(3-phenyl-1H-pyrazol-1-yl)nicotinamide] | ≤ 40 | ++ (Ki(cathepsin B)/Ki(calpain) ratio of ≧30) | + (10≦Ki(cathepsin K)/Ki(calpain)<30) | + (30≦Ki(cathepsin L)/Ki(calpain)<50) | –
3 | NC(=O)C(=O)C(Cc1ccccc1)NC(=O)c1cc(Cl)cnc1-n1ccc(-c2ccc(N3CCOCC3)cc2)n1 (centres unmarked) [Example 31, N-(3-Amino-1-benzyl-2,3-dioxopropyl)-5-chloro-2-[3-(4-morpholin-4-ylphenyl)-1H-pyrazol-1-yl]nicotinamide] | ≤ 40 | ++ (Ki(cathepsin B)/Ki(calpain) ratio of ≧30) | + (10≦Ki(cathepsin K)/Ki(calpain)<30) | + (30≦Ki(cathepsin L)/Ki(calpain)<50) | –
4 | N#Cc1cnc(-n2ccc(-c3ccccc3)n2)c(C(=O)NC(Cc2ccccc2)C(=O)C(N)=O)c1 (centres unmarked) [Example 82, N-(3-Amino-1-benzyl-2,3-dioxopropyl)-5-cyano-2-(3-phenyl-1H-pyrazol-1-yl)nicotinamide] | 40 to 100 | ++ (Ki(cathepsin B)/Ki(calpain) ratio of ≧30) | ++ (Ki(cathepsin K)/Ki(calpain) ratio of ≧30) | ++ (Ki(cathepsin L)/Ki(calpain) ratio of ≧50) | –
5 | NC(=O)C(=O)C(Cc1ccc(OC(F)(F)F)cc1)NC(=O)c1cccnc1-n1ccc(-c2cccc(C(F)(F)F)c2)n1 (centres unmarked) [Example 134, N-[3-Amino-2,3-dioxo-1-({4-[(trifluoromethyl)oxy]phenyl}methyl)propyl]-2-{3-[3-(trifluoromethyl)phenyl]-1H-pyrazol-1-yl}pyridine-3-carboxamide] | – | ++ (Ki(cathepsin B)/Ki(calpain) ratio of ≧30) | ++ (Ki(cathepsin K)/Ki(calpain) ratio of ≧30) | + (30≦Ki(cathepsin L)/Ki(calpain)<50) | + (50≦Ki(cathepsin S)/Ki(calpain)<100)
6 | COc1ccc(OC)c(-c2ccn(-c3ncccc3C(=O)NC(Cc3ccccc3)C(=O)C(N)=O)n2)c1 (centres unmarked) [Example 151, N-[3-Amino-2,3-dioxo-1-(phenylmethyl)propyl]-2-{3-[2,5-bis(methyloxy)phenyl]-1H-pyrazol-1-yl}pyridine-3-carboxamide] | 40 to 100 | ++ (Ki(cathepsin B)/Ki(calpain) ratio of ≧30) | ++ (Ki(cathepsin K)/Ki(calpain) ratio of ≧30) | ++ (Ki(cathepsin L)/Ki(calpain) ratio of ≧50) | –
7 | N-{3-Amino-1-[(4-fluorophenyl)methyl]-2,3-dioxopropyl}-2-[3-(2-chloro-3-fluorophenyl)-1H-pyrazol-1-yl]pyridine-3-carboxamide [Example 154] | – | ++ (Ki(cathepsin B)/Ki(calpain) ratio of ≧30) | ++ (Ki(cathepsin K)/Ki(calpain) ratio of ≧30) | ++ (Ki(cathepsin L)/Ki(calpain) ratio of ≧50) | ++ (Ki(cathepsin S)/Ki(calpain) ratio of ≧100)
